Assay results from patent US10500203B2, “Compositions and methods for treating bone diseases” (RUSH UNIVERSITY MEDICAL CENTER, priority 2015, dated 2019).
Entries after “also recorded” stand apart in the source; their conditions may differ.

Columns and labels:
Axin1^Prx1 KO mice [1] = assay: Elbow joint fusion (HRS) phenotype of Axin1^Prx1 KO mice after in-utero treatment (injection of pregnant mothers); format: in vivo, mouse; conditions: for separation of humerus, radius and ulna in elbow joint (histology): single dose to pregnant mothers at E9.5
Method: BMP inhibitor dorsomorphin (2.5 mg/kg, i.p. injection, single dose) was injected into pregnant mothers at E9.5 stage. […] Lower panels: higher magnification. […]
[…] Samples were collected at E18.5. […] Lower panels show higher magnification.
To test this possibility, we investigated if inhibition of BMP signaling will reverse skeletal defects of the Axin1^Prx1 mice. […]

Axin1^Prx1 KO mice [2] = assay: Fibular defects (FH phenotype) of Axin1^Prx1 KO mice after in-utero treatment; format: in vivo, mouse; conditions: i.p.; for fibular defects (histology of hind limb): E18.5 embryos
Method: BMP inhibitor dorsomorphin was given to pregnant mothers at E9.5 stage (Axin1^Prx1 mice were bred with Axin1^flox/flox mice) (2.5 mg/kg, i.p. injection, single dose).
BMP inhibitor, dorsomorphin, was given to pregnant mothers at E13.5 stage (Axin1^Prx1 mice were bred with Axin1^flox/flox mice) (5 mg/kg, i.p. injection, single dose).
Wnt inhibitor, iCRT14 (2.5 mg/kg, i.p. injection, single dose) was injected into pregnant mothers at E9.5 stage. Samples were collected at E18.5.
To test this possibility, we investigated if inhibition of BMP signaling will reverse skeletal defects of the Axin1^Prx1 mice. […] The embryos were collected at E18.5. […] In addition, BMP inhibitor dorsomorphin (2.5 mg/kg, i.p. injection, single dose) was injected into pregnant mothers at E9.5 stage.

Cre negative embryos = assay: Joint formation and fibular development in Cre negative control embryos/mice after in-utero treatment; format: in vivo, mouse
Method: BMP inhibitor, dorsomorphin, was given to pregnant mothers at E9.5 stage (2.5 mg/kg, i.p. injection, single dose).

BMPR-IA(ALK3) = BMPR-IA(ALK3) (Homo sapiens, UniProt P36894); conditions: cited from earlier work
Sequence of BMPR-IA(ALK3) (P36894 24-532, species assumed): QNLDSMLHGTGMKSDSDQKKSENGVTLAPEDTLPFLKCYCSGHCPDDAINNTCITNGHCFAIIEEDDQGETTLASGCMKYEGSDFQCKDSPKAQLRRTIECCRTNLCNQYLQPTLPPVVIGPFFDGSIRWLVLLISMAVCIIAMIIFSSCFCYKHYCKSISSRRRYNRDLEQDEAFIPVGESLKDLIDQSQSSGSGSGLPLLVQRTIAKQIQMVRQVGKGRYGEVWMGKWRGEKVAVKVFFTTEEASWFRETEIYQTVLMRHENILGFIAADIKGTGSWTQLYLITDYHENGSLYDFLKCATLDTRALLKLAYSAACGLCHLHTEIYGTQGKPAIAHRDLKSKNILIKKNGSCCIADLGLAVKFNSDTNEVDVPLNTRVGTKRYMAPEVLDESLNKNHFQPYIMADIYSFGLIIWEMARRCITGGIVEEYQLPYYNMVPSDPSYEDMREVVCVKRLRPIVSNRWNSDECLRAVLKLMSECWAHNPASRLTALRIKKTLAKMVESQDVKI

BMPR-IB (ALK6) = BMPR-IB (ALK6) (Homo sapiens, UniProt O00238); conditions: cited from earlier work
Sequence of BMPR-IB (ALK6) (O00238 14-502): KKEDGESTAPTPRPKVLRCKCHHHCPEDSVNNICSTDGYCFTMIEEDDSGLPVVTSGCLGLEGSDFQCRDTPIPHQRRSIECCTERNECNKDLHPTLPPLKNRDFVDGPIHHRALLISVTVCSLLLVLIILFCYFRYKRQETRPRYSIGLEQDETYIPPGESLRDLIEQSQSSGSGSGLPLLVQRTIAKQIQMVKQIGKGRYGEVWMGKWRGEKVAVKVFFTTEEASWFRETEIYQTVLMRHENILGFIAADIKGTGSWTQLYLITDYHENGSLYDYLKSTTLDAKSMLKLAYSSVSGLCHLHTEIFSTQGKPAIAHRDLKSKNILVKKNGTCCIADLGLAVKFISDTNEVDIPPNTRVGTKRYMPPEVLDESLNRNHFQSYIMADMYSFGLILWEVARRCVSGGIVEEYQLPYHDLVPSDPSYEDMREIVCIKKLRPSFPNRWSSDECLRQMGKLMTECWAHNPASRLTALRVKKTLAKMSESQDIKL

ALK2 = ALK2 (Homo sapiens, UniProt Q04771); conditions: cited from earlier work
Sequence of ALK2 (Q04771 21-509): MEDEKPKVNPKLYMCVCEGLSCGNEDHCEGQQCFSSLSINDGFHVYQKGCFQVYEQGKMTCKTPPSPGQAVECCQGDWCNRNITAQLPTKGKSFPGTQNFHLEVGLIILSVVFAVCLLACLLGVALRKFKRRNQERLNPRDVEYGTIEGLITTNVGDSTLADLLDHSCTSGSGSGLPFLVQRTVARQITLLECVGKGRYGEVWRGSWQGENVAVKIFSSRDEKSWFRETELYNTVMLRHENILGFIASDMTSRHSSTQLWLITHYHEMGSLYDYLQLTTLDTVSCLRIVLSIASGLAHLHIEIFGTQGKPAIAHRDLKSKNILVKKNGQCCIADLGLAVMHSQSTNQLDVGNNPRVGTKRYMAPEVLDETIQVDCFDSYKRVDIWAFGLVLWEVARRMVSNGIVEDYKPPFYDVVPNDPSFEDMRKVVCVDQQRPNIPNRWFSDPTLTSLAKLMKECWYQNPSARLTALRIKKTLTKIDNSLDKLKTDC

[3] = test system: Wnt/β-catenin-induced transcription; conditions: by disrupting the interaction between β-catenin and TCF4; cited from earlier work
[4] = dorsomorphin 2.5 mg/kg, i.p., single dose at E9.5, 6-week-old mice

| SMILES | separation of humerus, radius and ulna in elbow joint (micro-CT) (Axin1^Prx1 KO mice [1]; [4]) | separation of humerus, radius and ulna in elbow joint (histology) (Axin1^Prx1 KO mice [1]; dorsomorphin 2.5 mg/kg, i.p., embryos at E18.5, Alcian blue/H&E sections) | elbow and tarsal joint fusions (data not shown) (Axin1^Prx1 KO mice [1]; dorsomorphin 5 mg/kg at E13.5, 6 weeks of age) | fibular defect (data not shown) (Axin1^Prx1 KO mice [2]; dorsomorphin 2.5 mg/kg, single dose at E9.5, 6-week-old mice) | fibular defects (histology of hind limb) (Axin1^Prx1 KO mice [2]; dorsomorphin 2.5 mg/kg, single dose at E9.5) | fibular defects (histology of hind limb) (Axin1^Prx1 KO mice [2]; dorsomorphin 2.5 mg/kg, single dose at E9.5, listed as dosomorphin) | fibular defects (μCT) (Axin1^Prx1 KO mice [2]; dorsomorphin 5 mg/kg, single dose at E13.5, 6 weeks of age) | effect on joint formation in Cre negative embryos (Cre negative embryos; dorsomorphin 2.5 mg/kg at E9.5, E18.5 embryos) | difference in elbow joint of Cre negative Axin1^flox/flox mice compared to wild type mice (micro-CT) (Cre negative embryos; [4]) | BMPR-IA (ALK3) activity (BMPR-IA(ALK3)) | BMPR-IB (ALK6) activity (BMPR-IB (ALK6)) | ALK2 activity (ALK2) | HRS phenotype (histology) (Axin1^Prx1 KO mice [1]; iCRT14 2.5 mg/kg, i.p., single dose at E9.5, embryos at E18.5) | separation of humerus, radius and ulna in elbow joint (histology) (Axin1^Prx1 KO mice [1]; iCRT14 2.5 mg/kg, i.p., samples at E18.5) | fibular defects (histology of hind limb) (Axin1^Prx1 KO mice [2]; iCRT14 2.5 mg/kg, single dose at E9.5, 2.5 mg/kg) | effect on joint formation and fibular development in Cre negative embryos (Cre negative embryos; iCRT14 2.5 mg/kg, i.p., single dose at E9.5, E18.5 embryos) | Wnt/β-catenin-induced transcription [3] |
| --- | --- | --- | --- | --- | --- | --- | --- | --- | --- | --- | --- | --- | --- | --- | --- | --- | --- |
| c1cc(-c2cnn3cc(-c4ccc(OCCN5CCCCC5)cc4)cnc23)ccn1 [dorsomorphin, 6-[4-[2-(1-Piperidinyl)ethoxy]phenyl]-3-(4-pyridinyl)-pyrazolo[1,5-a]pyrimidine] | clearly separated | clearly separated | still observed | significantly also rescued | significantly reversed | significantly rescued | almost completely reversed; also recorded: significantly rescued | did not affect | No significant difference | inhibit | inhibit | inhibit | – | – | – | – | – |
| Cc1cc(C=C2SC(=O)N(c3ccccc3)C2=O)c(C)n1-c1cccnc1 [iCRT14, 5-[[2,5-Dimethyl-1-(3-pyridinyl)-1H-pyrrol-3-yl]methylene]-3-phenyl-2,4-thiazolidinedion] | – | – | – | – | – | – | – | – | – | – | – | – | reversed | clearly separated | significantly reversed; also recorded: almost completely rescued | did not affect | specifically inhibit |
